Source: patent US20090023684A1, “FLUID FOR PERITONEAL DIALYSIS” (priority 2005, published 2009)

Assay: Body fluid removability of DF using dialysis tube (Experiment 2)
Conditions: similar experiment, compared with the CNN results; data omitted
Experimental: Experiments, examining the effects of a cyclic tetrasaccharide on the body fluid removability of DF, were carried out using dialysis tube as follows:
According to the compositions shown in Table 2, DFs comprising glucose or CNN are prepared, respectively. Into a dialysis tube (Molecular weight cut off: 15,000 daltons; diameter: 16 mm; length: 70 mm), 1.5 milliliters each of the DF was poured and sealed using a closer, and then put into one liter of a dialyzing solution, prepared by admixed sodium chloride and dextran (Molecular weight: 60,000 to 90,000 daltons; commercialized by Wako Pure Chemical Industries Ltd., Osaka, Japan) with purified water to give concentrations of 9 g/L and 6 g/L, respectively, for dialysis. The fluid volumes in the dialysis tube at one to 14 hours after the start of dialysis were examined by measuring the weight of the tube. In the experiment, three dialysis tubes were used for a kind of DF. The changes of fluid volumes in the dialysis tubes were measured by calculating the average of the results of three tubes expressed as relative values using each fluid volume at the start of dialysis as 100.

## OC[C@H]1O[C@@H]2OC[C@H]3O[C@H](O[C@H]4[C@H](O)[C@@H](O)[C@@H](OC[C@H]5O[C@H](O[C@H]1[C@H](O)[C@H]2O)[C@H](O)[C@@H](O)[C@@H]5O)O[C@@H]4CO)[C@H](O)[C@@H](O)[C@@H]3O [CMM, cyclomaltosylmaltose]
  Fluid volume increase in dialysis tube with CMM used instead of CNN in Table 2: almost the same results
